These results are taken from PMC3896228, “Physalin H from Solanum nigrum as an Hh signaling inhibitor blocks GLI1–DNA-complex formation” (Beilstein Journal of Organic Chemistry, 2014).

Read-outs that look alike come from different tables or passages of the source.

For data set [1], the system named is GLI1 transcriptional activity. Briefly: cells. Type of data set: cell-based. To be noted: for IC50: read-out: GLI1 transcriptional inhibition, IC50. From the text: In addition, we evaluated the Hh inhibitory activity by assessing the cytotoxicity against cancer cells and the expression of Hh-related proteins.
(§1) We evaluated the Hh inhibitory activity of the isolated compounds by using a previously described method. […] In addition we always checked the cytotoxicity of the compounds against the assay cells, because a decrease in the number of living cells also correlates with a reduced luciferase activity. […] Further, we examined the cytotoxicity against cancer cells, human pancreatic (PANC1) and prostate (DU145) cancer cell lines, in which Hh signaling is aberrantly activated (Table 1).
(§2) The NMR measurements were carried out with JEOL ECP400 and ECP600 spectrometers in deuterated solvents and the residual proton chemical shift was taken as an internal standard. MS data were obtained with a JEOL JMS-T100LP (ESI). IR spectra were measured by using the ATR (attenuated total reflection) method on a Jasco FT-IR 230 spectrophotometer. […] The procedures for the GLI1-mediated transcriptional activity assay, Western blot analysis and cytotoxicity test were as previously described. The GST–GLI1 protein was produced as previously described.

Data set [2] concerns C3H10T1/2. Particulars: cited from earlier work; for survival of C3H10T1/2 cells: normal cell line; for IC50: read-out: Cytotoxicity, IC50 C3H10T1/2, C3H10T1/2.
For data set [3], the system named is GLI1 transcriptional activity. Particulars: cited from earlier work.
The test system of data set [4] is PANC1. To be noted: read-out: Cytotoxicity, IC50 PANC1; cited from earlier work.
Data set [5] relates to PANC1. Briefly: Cytotoxicity test against PANC1. Particulars: Homo sapiens, PANC-1. Type of data set: cell-based. From the text:
(§3) […]. […] […]. […] […].

Data set [6] relates to BCL2. Description: Western blot analysis of BCL2 in DU145 cells. Type of data set: cell-based, human. Particulars: 3.0 μM, DU145 cancer cells.
From the text: as §3
(§4) Figure 4 Inhibition of protein expression by compound 1. (A) Western blot analysis of PTCH, BCL-2 protein levels in GLI1-overexpressing HaCaT cells after treatment with 1. (B) Western blot analysis of PTCH, BCL-2 protein levels in DU145 cells after treatment with 1.
A general note: A western blot detects proteins with antibodies after separation by electrophoresis.

The subject of a further data set is DU145. Description: Cytotoxicity test against DU145. In kind it is cell-based.
From the text: as §3

In data set [7] the test system is PTCH. Description: Western blot analysis of PTCH in GLI1-overexpressing HaCaT cells. In kind it is cell-based. Particulars: 3.0 μM, HaCaT cells expressing exogenous GLI1, Western blot.
From the text: as §3, §4

Data set [8] relates to BCL2. Briefly: Western blot analysis of BCL2 in GLI1-overexpressing HaCaT cells. In kind it is cell-based. To be noted: 3.0 μM, HaCaT cells expressing exogenous GLI1, Western blot.
From the text: as §3, §4

The test system of data set [9] is C3H10T1/2. Briefly: Cytotoxicity test against C3H10T1/2 normal cells. Type of data set: cell-based. To be noted: normal cell line.
From the text: as §3

Data set [10] can be described thus: Cytotoxicity test against C3H10T1/2 normal cells. Type of data set: cell-based. To be noted: mouse, C3H10T1/2 cells (normal cell line).
From the text: as §3

Data set [11] has as its system PTCH. Briefly: Western blot analysis of PTCH in DU145 cells. To be noted: 3.0 μM, DU145 cancer cells. Type of data set: cell-based, human.
From the text: as §3, §4

Data set [12] concerns assay cells (HaCaT cells expressing exogenous GLI1). Description: Cytotoxicity against reporter assay cells (cell viability).
From the text: as §1, §2

The target of data set [13] is T1, GLI1–DNA complex (GST–GLI1 171-515aa, GLI1–BS) (Homo sapiens, UniProt P08151).
T1 construct: GST–GLI1 (171-515aa); made in house; host or cells: Escherichia coli
T1 sequence (P08151 171-515): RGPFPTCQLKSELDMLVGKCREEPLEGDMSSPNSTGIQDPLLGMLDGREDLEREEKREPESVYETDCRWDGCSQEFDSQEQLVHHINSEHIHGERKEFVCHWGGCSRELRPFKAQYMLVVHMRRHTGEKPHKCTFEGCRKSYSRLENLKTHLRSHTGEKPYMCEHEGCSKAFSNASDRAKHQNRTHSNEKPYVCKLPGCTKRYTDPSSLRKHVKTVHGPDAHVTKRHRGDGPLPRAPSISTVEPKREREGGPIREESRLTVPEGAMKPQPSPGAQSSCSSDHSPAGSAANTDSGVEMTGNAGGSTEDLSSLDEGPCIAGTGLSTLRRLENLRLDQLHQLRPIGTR
Type of data set: binding. To be noted: EMSA, 200 μM. In general terms: A gel shift assay detects complexes by their altered migration in electrophoresis.

The mark [14] stands for this setting: read-out: GLI1 transcriptional inhibition, IC50.
Where [15] appears, read: Homo sapiens, DU-145; read-out: Cytotoxicity, IC50 DU145.

As for `CC12C(=O)C=CC=C1C(O)CC1C2CCC2(O)C(=O)OC3(C)C4CC5(C)C(COC16OC23C5C6=O)C(=O)O4` (centres unmarked) [physalin G (2], the IC50 in data set [1] was 47.1 µM.

As to `C[C@]12C(=O)C=CCC1=CC[C@@H]1[C@@H]2CC[C@@]2(O)C(=O)O[C@@]3(C)[C@H]4C[C@]5(C)[C@@H](CO[C@@]16O[C@]23[C@H]5C6=O)C(=O)O4` [physalin B (6), physalin B], the “survival of C3H10T1/2 cells” value in the data set with C3H10T1/2 [2] is “not significantly affected”. Moreover, the results for the IC50 (in the data set on C3H10T1/2 [2]; in data set [3] (setting [14]); in the data set on PANC1 [4]) were 17 µM, 0.62 µM and 5.3 µM, respectively.

Consider `C[C@@]12C[C@H]3OC(=O)[C@@H]1CO[C@]14O[C@]5([C@H]2C1=O)[C@@](O)(CC[C@H]1[C@H]4C[C@H]2O[C@]24CC=CC(=O)[C@]14C)C(=O)O[C@@]35C` [physalin F (5), physalin F], for which the “survival of C3H10T1/2 cells” value with C3H10T1/2 [2] is recorded as “not significantly affected”. In addition, the IC50 with C3H10T1/2 [2] is 15 µM; in [3] (setting [14]), 0.66 µM; in the data set with PANC1 [4] it was 2.7 µM.

Consider `COC(=O)[C@]1(C)CCC[C@]2(C)c3cc4occc4c(C)c3C[C@@H](OC(C)=O)[C@@H]12` [taepeenin D, reference compound], for which the IC50 in data set [3] (read-out: Hh inhibition IC50) was 1.6 µM.

For the compound `CC12CC3OC(=O)C1COC14OC5(C2C1=O)C(O)(CCC1C4CC(O)C2(Cl)CC=CC(=O)C12C)C(=O)OC35C` (centres unmarked) [physalin H (1), physalin H], the IC50 in the data set with PANC1 [5] is 5.7 µM; in the data set with DU145 (setting [15]) it was 6.8 µM; in data set [10], above 6 µM. Further, the “expression of BCL2” value in the data set on BCL2 [6] was “decreased the expression”; with BCL2 [8], “inhibited the expression”. In addition, the “expression of PTCH” value in the data set on PTCH [7] was “inhibited the expression”; with PTCH [11], “only slightly affected”. The “survival of C3H10T1/2 cells” value with C3H10T1/2 [9] is given as “not significantly affected”.

For `CC12CC3OC(=O)C1COC14OC5(C2C1=O)C(O)(CCC1C4CC2OC24CC=CC(=O)C14C)C(=O)OC35C` (centres unmarked) [physalin F (5], the IC50 in data set [3] (setting [14]) was 0.66 µM.

For `CC12C(=O)CC=CC1=CCC1C2CCC2(O)C(=O)OC3(C)C4CC5(C)C(COC16OC23C5C6=O)C(=O)O4` (centres unmarked) [isophysalin B (4), isophysalin B], the IC50 in [1] is 4.2 µM; with PANC1 [5] it was 12 µM; with DU145 (setting [15]), above 12 µM; in [10], above 12 µM. For the same compound, the “survival of C3H10T1/2 cells” value in the data set with C3H10T1/2 [9] was “not significantly affected”. For the same compound, in [12], the “cytotoxicity against assay cells” value is recorded as “low cytotoxicity”.

For the compound `CC12CC3OC(=O)C1COC14OC5(C2C1=O)C(O)(CCC1C4CC(O)C24C=CC(OO2)C(=O)C14C)C(=O)OC35C` (centres unmarked) [physalin K (3), physalin K], the Hh inhibition entry in data set [1] was “did not show Hh inhibition at all”.

With `C=CC(C)(O)CC[C@@]1(C)C2=C([C@H](OC(C)=O)[C@H](OC(C)=O)[C@H]1C)C(C)(C)CCC2` (some centres unmarked) [vitetrifolin D, reference compound], in [3] (read-out: Hh inhibition IC50), the IC50 was 20.2 µM.

As for `C=C(C)[C@@H]1CC[C@]2(C(=O)O)CC[C@]3(C)[C@H](CC[C@@H]4[C@@]5(C)[C@H](C=O)[C@@H](O)C(C)(C)[C@@H]5CC[C@]43C)[C@@H]12` [colubrinic acid, reference compound], the IC50 in data set [3] (read-out: Hh inhibition IC50) was 38 µM.

Turning to `C[C@]12C(=O)C=CC=C1[C@@H](O)C[C@@H]1[C@@H]2CC[C@@]2(O)C(=O)O[C@@]3(C)[C@H]4C[C@]5(C)[C@@H](CO[C@@]16O[C@]23[C@H]5C6=O)C(=O)O4` [physalin G (2), physalin G], the IC50 in data set [1] was 47.1 µM; in the data set with DU145 (Homo sapiens, DU-145, read-out: Cytotoxicity, IC50 DU145), above 12 µM. Besides, the “formation of GLI1–DNA complex” value in [13] is recorded as “did not inhibit”.

Turning to `C=C1C(=O)OC2CC1(C)C1C(=O)C3(O)OC14C(O)(CCC1C3CC=C3CC=CC(=O)C31C)C(=O)OC24C` (centres unmarked) [physalin B (6], in [3] (setting [14]), the IC50 was 0.62 µM.
